Patent publication US5998654A, “Retinoic acid receptor antagonist compounds and methods” (Ligand Pharmaceuticals Incorporated, priority 1997, dated 1999)
pKd: −log10 of the molar value.

Key:
[1] = biological target: T1, RARα (Homo sapiens, UniProt P10276); test: RAR binding, RARα; conditions: Kd from IC50 by Cheng-Prussof equation
T1 sequence (P10276 1-462): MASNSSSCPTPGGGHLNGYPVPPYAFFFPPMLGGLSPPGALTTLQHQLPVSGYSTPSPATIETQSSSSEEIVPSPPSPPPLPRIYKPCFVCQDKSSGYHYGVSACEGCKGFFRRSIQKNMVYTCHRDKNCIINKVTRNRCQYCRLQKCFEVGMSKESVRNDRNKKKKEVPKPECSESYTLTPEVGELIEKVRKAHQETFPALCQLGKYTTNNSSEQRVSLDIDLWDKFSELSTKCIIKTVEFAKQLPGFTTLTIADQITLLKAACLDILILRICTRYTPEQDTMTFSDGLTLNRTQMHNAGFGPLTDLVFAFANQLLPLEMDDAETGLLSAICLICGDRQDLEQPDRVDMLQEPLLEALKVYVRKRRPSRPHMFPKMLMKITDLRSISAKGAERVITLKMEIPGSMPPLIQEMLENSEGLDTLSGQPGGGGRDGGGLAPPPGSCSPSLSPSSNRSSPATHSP
Experimental: (§1) Non-specific binding was defined as that binding remaining in the presence of 500 nM of the appropriate unlabelled compound. At the end of the incubation period, bound from free ligand were separated. The amount of bound tritiated retinoids was determined by liquid scintillation counting of an aliquot (700 μL) of the supernatant fluid or the hydroxylapatite pellet.
(§2) After correcting for non-specific binding, IC50 values were determined. […] The IC50 value was determined graphically from a log-logit plot of the data. The Kd values were determined by application of the Cheng-Prussof equation to the IC50 values, the labeled ligand concentration and the Kd of the labeled ligand.

[2] = biological target: T2, RARβ (Homo sapiens, UniProt P10826); test: RAR binding, RARβ; conditions: Kd from IC50 by Cheng-Prussof equation
T2 sequence (P10826 1-448 isoform P10826-2): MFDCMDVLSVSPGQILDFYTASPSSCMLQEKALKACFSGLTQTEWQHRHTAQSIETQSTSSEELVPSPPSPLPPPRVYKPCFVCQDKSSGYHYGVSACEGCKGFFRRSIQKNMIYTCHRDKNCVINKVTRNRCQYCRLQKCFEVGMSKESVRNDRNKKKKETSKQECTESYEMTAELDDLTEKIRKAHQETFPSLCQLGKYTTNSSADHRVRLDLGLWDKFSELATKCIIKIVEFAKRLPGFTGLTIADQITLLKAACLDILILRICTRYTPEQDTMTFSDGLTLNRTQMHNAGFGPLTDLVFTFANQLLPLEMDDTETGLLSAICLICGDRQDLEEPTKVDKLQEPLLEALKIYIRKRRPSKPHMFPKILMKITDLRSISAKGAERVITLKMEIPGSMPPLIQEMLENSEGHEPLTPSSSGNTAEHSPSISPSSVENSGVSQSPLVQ
Experimental: as §1, §2

[3] = biological target: T3, RARγ (Homo sapiens, UniProt P13631); test: RAR binding, RARγ; conditions: Kd from IC50 by Cheng-Prussof equation
T3 sequence (P13631 1-454): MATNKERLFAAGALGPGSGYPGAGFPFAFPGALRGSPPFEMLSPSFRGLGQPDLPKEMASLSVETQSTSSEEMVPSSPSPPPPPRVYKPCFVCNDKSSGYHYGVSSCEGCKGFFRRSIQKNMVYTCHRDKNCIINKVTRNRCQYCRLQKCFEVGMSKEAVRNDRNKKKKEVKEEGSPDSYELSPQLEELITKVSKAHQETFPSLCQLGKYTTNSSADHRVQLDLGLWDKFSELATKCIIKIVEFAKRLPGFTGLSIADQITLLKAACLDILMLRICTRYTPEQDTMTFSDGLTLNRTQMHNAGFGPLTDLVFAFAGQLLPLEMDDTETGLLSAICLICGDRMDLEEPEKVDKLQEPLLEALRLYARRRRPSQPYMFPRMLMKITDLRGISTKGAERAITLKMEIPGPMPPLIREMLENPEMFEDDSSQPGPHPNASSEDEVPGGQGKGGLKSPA
Experimental: as §1, §2

[4] = test system: RARs; test: co-transfection assay, activity on RARs (overall statement); type: cell-based, human; conditions: comparison compound
Experimental: Utilizing the "cis-trans" or "co-transfection" assay described by Evans et al., Science, 240:889-95 (May 13, 1988), the disclosure of which is herein incorporated by reference, the RAR antagonist compounds of the present invention were tested and found to have strong, specific activity as antagonists of RARs in the presence of RAR agonists. This assay is described in further detail in U.S. Pat. Nos. 4,981,784 and 5,071,773, the disclosures of which are incorporated herein by reference.
In the co-transfection assay, a cloned cDNA for an IR (e.g., human RARα:, RARβ, RXRγ) under the control of a constitutive promoter (e.g., the SV 40 promoter) is introduced by transfection (a procedure to induce cells to take up foreign genes) into a background cell substantially devoid of endogenous IRs. This introduced gene directs the recipient cells to make the IR protein of interest. A second gene is also introduced (co-transfected) into the same cells in conjunction with the IR gene. […]
The co-transfection assay can detect small molecule agonists or antagonists of target IRs. […] This activity can be conveniently measured, e.g., by increasing luciferase production, which reflects compound-dependent, IR-mediated increases in reporter transcription. […]

- pKd [1]: 9.00
- pKd [2]: 9.40
- pKd [3]: 9.30
SMILES: COc1c(C(C)(C)C)cc(/C(C)=C/C=C/C(C)=C/C(=O)O)cc1C(C)(C)C [A, reference compound]
- type of activity on RAR (in words) [4]: displays only activity as an RAR? agonist
